The subject of experiment [1] is human pancreatic cancer Bxpc3-18.2. Put plainly: Bxpc3-18.2 nude mouse xenograft tumor model, gemcitabine as control. Format: in vivo.
Description: When the tumor grew to a volume of about 100 mm^3 (day 39 after inoculation), 48 animals with good tumor growth were selected and equally divided into 6 groups (day 0) according to the tumor volume, with 8 animals in each group. […] The tumor diameters were measured twice a week, the mice were weighed, and the data were recorded. The tumor growth was dynamically observed by measuring the tumor diameters at different times after administration. The experiment was ended on day 28, the mice were asphyxiated with carbon dioxide, and then the tumors were stripped off and weighed.
In experiment [2] the test system is human gastric cancer NUGC-4-18.2. As to the kind of experiment: NUGC-4-18.2 nude mouse xenograft tumor model, cisplatin as control. As to conditions: 6 mg/kg i.v. qw×3, day 20.
Description: 2) In this experiment, human gastric cancer NUGC-4-18.2 was selected to construct a nude mouse xenograft tumor model. When the tumor grew to a volume of about 120 mm^3 (day 6 after inoculation), 64 animals with good tumor growth were selected and equally divided into 8 groups (day 0) according to the tumor volume, with 8 animals in each group. […] The tumor diameters were measured twice a week, the mice were weighed, and the data were recorded. The change in the tumor growth was dynamically observed by measuring the tumor diameters at different times after administration. The experiment was ended on day 20, the animals were asphyxiated with carbon dioxide, and then the tumors were stripped off and weighed.
The target of experiment [3] is T1, cynomolgus monkey CLDN18.2 (cynomolgus monkey, UniProt A0A2K5VVB4 1-261).
T1 chain: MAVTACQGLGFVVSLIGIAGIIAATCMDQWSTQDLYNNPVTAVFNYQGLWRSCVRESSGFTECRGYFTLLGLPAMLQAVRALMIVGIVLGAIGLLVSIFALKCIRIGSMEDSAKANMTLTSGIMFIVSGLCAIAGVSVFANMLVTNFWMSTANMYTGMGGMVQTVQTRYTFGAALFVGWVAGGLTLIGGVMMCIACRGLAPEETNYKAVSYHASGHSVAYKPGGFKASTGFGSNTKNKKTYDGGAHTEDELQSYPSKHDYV
As to the kind of experiment: flow cytometry on CHO-K1-cynomolgus monkey CLDN18.2 cells, four-parameter fit; given as ED50.

In a further experiment the target is mouse CLDN18.2 (mouse) (UniProt P56857). As to the kind of experiment: flow cytometry on HEK293-mouse CLDN18.2 cells, four-parameter fit; given as ED50.
A further experiment addresses human CLDN18.2 (human) (UniProt P56856). Put plainly: flow cytometry on HEK293-human CLDN18.2 cells, four-parameter fit; given as ED50.

`Nc1ccn([C@@H]2O[C@H](CO)[C@@H](O)C2(F)F)c(=O)n1` [Gemcitabine, gemcitabine, reference compound]: the “tumor weight inhibition rate” value in experiment [1] (50 mg/kg i.v. biw×4, day 28) stood at 51.0%. The “tumor growth compared with the solvent control group” value in experiment [1] (SYJS001-ADC 2, 4 and 8 mg/kg single, GEM 50 mg/kg biw×4, P<0.01) is “significantly inhibited”.
On to `N.N.[Cl][Pt][Cl]` [cisplatin, reference compound], for which the “tumor weight inhibition rate” value in experiment [2] worked out at 66.5%.

B1: SYJS001-ADC (recombinant anti-human CLDN18.2 monoclonal antibody-MMAE conjugate) (antibody, human IgG1, kappa, V domains shown)
VH: EVQLSESGGALVQPGESLRLSCAASGFTFSSYAMTWVRQAPGKGLEWVSSLSGSGRSTYYAASIKGRFTISRDNSKNTLYLQMSSLRAEDTAIYYCAKSLSYYHYYFDYWGQGTLVTVSS
VL: DIQLTQSPSFLSASVGDRVPITCRASQDISNYLAWYQQKPGKAPKLLIYSASTLQSGVPSRFSGSGSGTEFTLTISSLQPEDFASYHCQQVKTYPLTFGGGTKVEIKR
modifications: one molecule of MMAE conjugated via the linker NH2-PEG3-Val-Cit (LND1002) by an amide (isopeptide) bond to Q298 (i.e., Q295 according to Kabat numbering) of each heavy chain; mean DAR 2.0
notes: also called anti-CLDN18.2 antibody-drug conjugate SYJS001-ADC
By EC50 is commonly meant the concentration giving half of the maximal effect. For the molecule B1, the figures for the EC50 (in experiment [3]; with mouse CLDN18.2 (mouse); with human CLDN18.2 (human)) were 0.648 µg/mL, 0.717 µg/mL and 0.439 µg/mL, respectively.
